Data on twelve compounds can be found in PubChem BioAssay (NCI).

Structures are written as SMILES.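 1) Cells in 96-well plates. 2) Compound, 48 h, 5 concentrations. 3) Linear interpolation between surrounding doses. 4) Unreached endpoint = highest concentration. GI50 marks 50% less growth. TGI: total growth inhibition.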

Test systems include IGROV1 ovarian; HT29 colon; SW-620 colon; SK-MEL-5 melanoma; COLO 205 colon; KM12 colon; HCT-116 colon; A498 renal; OVCAR-8 ovarian; MOLT-4 leukemia.
Assay in all cases: NCI-60 cell line screen, 48 h

Turning to `CCCC(=O)O.CCCC(=O)O.CCCC(=O)O.CCCC(=O)O.[Rh].[Rh]`, the GI50 in the assay with IGROV1 ovarian is 0.189 µM; in the assay on HT29 colon, 0.0334 µM; with SW-620 colon it was 0.0188 µM; in the assay on SK-MEL-5 melanoma, 0.107 µM; in the assay on COLO 205 colon it was 0.0186 µM; with KM12 colon, 0.172 µM. Further, the GI50 with HCT-116 colon was 0.0198 µM; in the assay on A498 renal it was 0.151 µM; with OVCAR-8 ovarian, 0.0435 µM; in the assay with MOLT-4 leukemia, 0.0315 µM. Also, the TGI in the assay with IGROV1 ovarian was 0.73 µM; with HT29 colon it was 0.126 µM; with SW-620 colon, 0.0405 µM; with SK-MEL-5 melanoma, 0.248 µM; in the assay on COLO 205 colon, 0.0406 µM; in the assay with KM12 colon it was 0.366 µM. Further, the TGI worked out at 0.0433 µM in the assay on HCT-116 colon, 0.325 µM with A498 renal, 0.428 µM with OVCAR-8 ovarian and 0.141 µM in the assay on MOLT-4 leukemia.

Take `Cc1cc(C)nc(SCCc2cccc[n+]2C)n1`: the TGI with IGROV1 ovarian, with HT29 colon, in the assay with SW-620 colon, with SK-MEL-5 melanoma, in the assay with COLO 205 colon and in the assay on KM12 colon was over 100 µM throughout. Further, the TGI in the assay with HCT-116 colon, in the assay on A498 renal, with OVCAR-8 ovarian and with MOLT-4 leukemia was over 100 µM throughout.

Consider `Br/C(=N\Nc1nn[nH]n1)c1ccncc1`, for which the TGI with IGROV1 ovarian, in the assay on HT29 colon, in the assay with SW-620 colon, in the assay on SK-MEL-5 melanoma, in the assay on COLO 205 colon and in the assay with KM12 colon was over 100 µM throughout. The TGI in the assay on HCT-116 colon, in the assay with A498 renal, with OVCAR-8 ovarian and in the assay with MOLT-4 leukemia was over 100 µM throughout.

Take `CC[C@]12C=CCN3CC[C@@]4(c5cc(Br)c(OC)cc5N(C)[C@H]4[C@@](O)(C(=O)N[C@@H](Cc4ccc(O)cc4)C(=O)OC)[C@@H]1O)[C@@H]32`: the TGI in the assay with IGROV1 ovarian was 73.3 µM; in the assay with HT29 colon, 30 µM; in the assay with SW-620 colon, over 100 µM; in the assay with SK-MEL-5 melanoma, 31.4 µM; with COLO 205 colon, 33.1 µM; in the assay on KM12 colon, 38.5 µM. Besides, the TGI in the assay on HCT-116 colon is over 100 µM; in the assay on A498 renal it was 40.8 µM; with OVCAR-8 ovarian, over 100 µM; with MOLT-4 leukemia, 62.3 µM.

In the case of `COc1c(OC/C=C(\C)CCC=C(C)C)ccc2ccc(=O)oc12`, the TGI with IGROV1 ovarian, in the assay on HT29 colon, in the assay with SW-620 colon, in the assay on SK-MEL-5 melanoma, with COLO 205 colon and in the assay with KM12 colon was over 100 µM throughout. Further, the TGI in the assay on HCT-116 colon, with A498 renal, in the assay on OVCAR-8 ovarian and with MOLT-4 leukemia was over 100 µM throughout.

For `CC(C)(C)OC(=O)NC1CCC(C(C)(C)C)CC1` (stereo not given), the TGI with IGROV1 ovarian is over 100 µM; in the assay with HT29 colon it was over 87.3 µM; in the assay with SW-620 colon it was over 100 µM; with SK-MEL-5 melanoma, over 72.4 µM; with COLO 205 colon, over 100 µM; with KM12 colon, over 100 µM. Further, the TGI in the assay on HCT-116 colon is over 100 µM; with A498 renal it was over 100 µM; in the assay on OVCAR-8 ovarian it was over 100 µM; with MOLT-4 leukemia, 67.2 µM.

With `O=C(Oc1ccc(Cl)cc1[N+](=O)[O-])c1ccccc1`, the TGI in the assay on IGROV1 ovarian was over 100 µM; in the assay on HT29 colon, over 100 µM; in the assay with SW-620 colon, over 100 µM; with SK-MEL-5 melanoma it was 36.7 µM; with COLO 205 colon, over 100 µM; in the assay with KM12 colon it was over 100 µM. The TGI with HCT-116 colon, in the assay on A498 renal, with OVCAR-8 ovarian and in the assay with MOLT-4 leukemia was over 100 µM in each case.

For the compound `COc1ccc(OC)c(CC(C)N)c1` (stereo not given), the TGI in the assay with IGROV1 ovarian, in the assay on HT29 colon, in the assay on SW-620 colon, with SK-MEL-5 melanoma, with COLO 205 colon and in the assay with KM12 colon was over 100 µM in each case. The TGI in the assay on HCT-116 colon, with A498 renal, with OVCAR-8 ovarian and in the assay with MOLT-4 leukemia was over 100 µM throughout.

As for `C=CCSSCC=C`, the TGI in the assay on IGROV1 ovarian, in the assay with HT29 colon, in the assay on SW-620 colon, in the assay with SK-MEL-5 melanoma, with COLO 205 colon and with KM12 colon was over 100 µM in each case. The TGI in the assay with HCT-116 colon was over 100 µM; in the assay with A498 renal, over 100 µM; in the assay on OVCAR-8 ovarian, over 74.4 µM; in the assay on MOLT-4 leukemia it was over 100 µM.

For the compound `Cn1c2c3ccc(Cl)cc3nc-2c(Cl)c2ccccc21`, the TGI came out at 42 µM with IGROV1 ovarian; 49.9 µM in the assay with HT29 colon; 63.1 µM in the assay on SW-620 colon; 42.7 µM in the assay with SK-MEL-5 melanoma; 40.1 µM in the assay on COLO 205 colon; 53.9 µM in the assay on KM12 colon. Further, the TGI in the assay on HCT-116 colon is 4.99 µM; in the assay with A498 renal, 45.1 µM; with OVCAR-8 ovarian it was over 100 µM; in the assay on MOLT-4 leukemia, over 100 µM.

On to `SC1CCCN(Cc2ccccc2)C1` (stereo not given), for which the TGI in the assay with IGROV1 ovarian was over 100 µM; in the assay on HT29 colon, 45.8 µM; in the assay with SW-620 colon, 72.6 µM; with SK-MEL-5 melanoma it was 35.4 µM; with COLO 205 colon, 33.7 µM; with KM12 colon it was over 100 µM. Also, the TGI with HCT-116 colon was over 100 µM; with A498 renal it was over 100 µM; in the assay with OVCAR-8 ovarian, over 100 µM; in the assay with MOLT-4 leukemia, 78.2 µM.

Regarding `O=C(/C=C/c1ccccc1)N1CCCCC1`, the TGI with IGROV1 ovarian, with HT29 colon, with SW-620 colon, with SK-MEL-5 melanoma, in the assay with COLO 205 colon and in the assay on KM12 colon was over 100 µM throughout. In addition, the TGI in the assay on HCT-116 colon, with A498 renal, with OVCAR-8 ovarian and in the assay with MOLT-4 leukemia was over 100 µM throughout.
